What all share (type): in vitro ADME
One experiment deals with T1, UGT1A3 (Homo sapiens, UniProt P35503).
T1 construct: from tissue; host or cells: human liver microsomes
T1 sequence (P35503 29-534): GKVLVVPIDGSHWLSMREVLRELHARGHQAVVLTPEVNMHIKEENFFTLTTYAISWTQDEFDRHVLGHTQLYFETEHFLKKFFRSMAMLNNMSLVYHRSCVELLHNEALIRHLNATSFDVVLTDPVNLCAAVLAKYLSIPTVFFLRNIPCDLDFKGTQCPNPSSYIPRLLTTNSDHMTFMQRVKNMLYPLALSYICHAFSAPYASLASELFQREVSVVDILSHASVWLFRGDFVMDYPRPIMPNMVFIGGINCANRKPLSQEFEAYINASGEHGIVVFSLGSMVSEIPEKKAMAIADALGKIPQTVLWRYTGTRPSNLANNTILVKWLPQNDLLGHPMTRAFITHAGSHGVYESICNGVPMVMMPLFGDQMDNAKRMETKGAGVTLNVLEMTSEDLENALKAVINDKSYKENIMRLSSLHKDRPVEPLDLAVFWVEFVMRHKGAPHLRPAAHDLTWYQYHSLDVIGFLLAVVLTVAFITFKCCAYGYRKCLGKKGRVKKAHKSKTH
As to the kind of experiment: UGT1A3 inhibition (chenodeoxycholic acid glucuronidation) in human liver microsomes, cocktail LC-MS/MS. Particulars: IC50 UGT isoform 1A3, HLMs 0.25 mg/mL with alamethicin, chenodeoxycholic acid 2.0 μM. On the procedure:
(§1) The inhibitory effects of two selaginellins on the metabolism of six UGT probe substrates were evaluated using previously reported method with minor modification. In brief, HLMs (0.25 mg/mL) were activated by incubation in the presence of alamethicin (25 μg/mL) for 15 min on ice. After the addition of UGT isoform-selective substrates and selaginellins (0, 0.5, 2, 5, 20 and 50 μM) the final concentrations of organic solvent (methanol) for the cocktail incubation conditions were 1.0% (v/v). The incubation reaction mixtures were pre-incubated for 5 min. The reaction was initiated by the addition of 5 mM UDPGA and further incubated for 60 min. All reactions were terminated by adding ice-cold acetonitrile containing estrone glucuronide (IS). After mixing and centrifugation, aliquots were injected into a LC-MS/MS as described previously (Table 2). All microsomal incubations were performed in triplicate.
(§2) The IC50 values (concentration of the inhibitor causing 50% inhibition of the original enzyme activity) were calculated using WinNonlin software (Pharsight, Mountain View, CA, USA): percentage of control activity = 100 × [1 − (I/(I + IC50))], where I is the inhibitor concentration, and IC50 is the inflection point on the curve.
Background: Liver microsomes are vesicles of endoplasmic reticulum, rich in cytochrome P450 enzymes.

The target of a further experiment is T2, CYP2A6 (Homo sapiens, UniProt P11509).
T2 construct: the incubation mixtures containing pooled HLMs (0.25 mg/mL, H2630, Xenotech); tissue Xenotech H2630; host or cells: pooled human liver microsomes
T2 sequence (P11509 1-494): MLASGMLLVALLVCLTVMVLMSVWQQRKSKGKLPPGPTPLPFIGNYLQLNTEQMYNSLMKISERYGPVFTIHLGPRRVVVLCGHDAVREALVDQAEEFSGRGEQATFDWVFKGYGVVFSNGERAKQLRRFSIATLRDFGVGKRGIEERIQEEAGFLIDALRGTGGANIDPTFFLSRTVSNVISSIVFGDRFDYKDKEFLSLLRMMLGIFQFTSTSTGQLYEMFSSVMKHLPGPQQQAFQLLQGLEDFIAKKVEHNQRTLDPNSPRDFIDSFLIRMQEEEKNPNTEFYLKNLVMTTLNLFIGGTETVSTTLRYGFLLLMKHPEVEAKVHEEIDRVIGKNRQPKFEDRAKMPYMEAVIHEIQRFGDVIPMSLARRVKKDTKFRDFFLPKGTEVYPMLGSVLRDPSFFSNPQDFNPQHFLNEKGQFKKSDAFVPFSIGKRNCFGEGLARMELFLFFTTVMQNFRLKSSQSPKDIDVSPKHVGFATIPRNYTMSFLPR
As to the kind of experiment: CYP2A6 inhibition (coumarin 7-hydroxylase) in human liver microsomes, substrate cocktail LC-MS/MS. On the procedure:
(§3) The inhibitory effects of two selaginellins on the metabolism of ten P450 probe substrates were evaluated using previously reported method with minor modification. Phenacetin O-deethylase, coumarin 7-hydroxylase, bupropion 4-hydroxylase, amodiaquine N-deethylase, tolbutamide 4-hydroxylase, omeprazole 5-hydroxylase, dextromethorphan O-demethylase, chlorzoxazone 6-hydroxylase and midazolam 1′-hydroxylase activities were determined as probe activities for CYP1A2, CYP2A6, CYP2B6, CYP2C8, CYP2C9, CYP2C19, CYP2D6, CYP2E1 and […], respectively, using substrate cocktail incubation and tandem mass spectrometry (Table 2). Selaginellins were dissolved in methanol. The final concentrations of organic solvent (methanol) for the cocktail incubation conditions in all experiments were 1.0% (v/v). In brief, the incubation mixtures containing pooled HLMs (0.25 mg/mL, H2630, Xenotech), P450 probe substrate cocktail, and inhibitor (0, 0.5, 2, 5, 20 and 50 μM) were preincubated at 37 °C for 5 min. […] After mixing and centrifugation, aliquots were analyzed by liquid chromatography-tandem mass spectrometry (LC-MS/MS) as previous described. The CYP2J2 inhibitory effects of two selaginellins were also evaluated in pooled HLMs using previously reported method. […]

A further experiment concerns the target T3, UGT1A4 (Homo sapiens, UniProt P22310).
T3 construct: from tissue; host or cells: human liver microsomes
T3 sequence (P22310 29-534): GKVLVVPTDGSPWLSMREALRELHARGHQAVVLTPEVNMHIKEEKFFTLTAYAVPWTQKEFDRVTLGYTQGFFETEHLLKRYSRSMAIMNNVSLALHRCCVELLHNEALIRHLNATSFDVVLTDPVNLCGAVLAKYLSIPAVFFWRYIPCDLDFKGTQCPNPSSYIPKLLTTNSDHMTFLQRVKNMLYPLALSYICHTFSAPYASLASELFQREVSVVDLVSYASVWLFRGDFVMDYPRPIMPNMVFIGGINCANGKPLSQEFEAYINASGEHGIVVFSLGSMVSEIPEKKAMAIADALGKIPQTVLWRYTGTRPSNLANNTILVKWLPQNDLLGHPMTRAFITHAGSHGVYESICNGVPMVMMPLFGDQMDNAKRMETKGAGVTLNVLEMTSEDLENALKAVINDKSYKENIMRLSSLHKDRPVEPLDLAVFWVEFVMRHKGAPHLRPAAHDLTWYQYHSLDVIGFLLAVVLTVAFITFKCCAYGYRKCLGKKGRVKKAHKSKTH
Briefly: UGT1A4 inhibition (trifluoperazine glucuronidation) in human liver microsomes, cocktail LC-MS/MS. On the procedure: as §1, §2

A further experiment has as its target T4, CYP2C19 (Homo sapiens, UniProt P33261).
T4 construct: the incubation mixtures containing pooled HLMs (0.25 mg/mL, H2630, Xenotech); tissue Xenotech H2630; host or cells: pooled human liver microsomes
Briefly: CYP2C19 inhibition (omeprazole 5-hydroxylase) in human liver microsomes, substrate cocktail LC-MS/MS. As for the experimental part:
as §3

Two compounds from PMC6151550, “Inhibitory Effect of Selaginellins from Selaginella tamariscina (Beauv.) Spring against Cytochrome P450 and Uridine 5′-Diphosphoglucuronosyltransferase Isoforms on Human Liver Microsomes” (Molecules : A Journal of Synthetic Chemistry and Natural …, 2017) can be followed below.

T4 sequence (P33261 whole entry): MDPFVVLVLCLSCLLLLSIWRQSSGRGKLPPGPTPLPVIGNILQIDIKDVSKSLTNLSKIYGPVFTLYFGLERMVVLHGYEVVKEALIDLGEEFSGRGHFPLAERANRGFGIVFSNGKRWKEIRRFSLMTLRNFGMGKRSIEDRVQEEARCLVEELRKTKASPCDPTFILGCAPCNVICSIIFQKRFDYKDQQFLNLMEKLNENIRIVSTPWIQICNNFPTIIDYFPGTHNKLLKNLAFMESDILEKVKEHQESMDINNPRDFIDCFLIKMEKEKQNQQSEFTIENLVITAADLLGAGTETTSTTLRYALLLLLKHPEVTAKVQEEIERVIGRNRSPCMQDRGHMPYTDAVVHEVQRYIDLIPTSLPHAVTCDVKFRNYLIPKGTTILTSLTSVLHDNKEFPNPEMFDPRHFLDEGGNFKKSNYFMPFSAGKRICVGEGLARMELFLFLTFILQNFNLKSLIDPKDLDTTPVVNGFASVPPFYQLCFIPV

The term IC50 denotes the concentration that gives 50% inhibition. A low value points to greater potency in that assay. As to `COc1ccc(C(=C2C=CC(=O)C=C2)c2c(-c3ccc(O)cc3)ccc(CO)c2C#Cc2ccc(O)cc2)cc1` [Selaginellin M], the IC50 is 3.5 µM at UGT1A3, more than 50 µM against CYP2A6, 3.9 µM at UGT1A4 and 16.1 µM against CYP2C19.

For `O=C1C=CC(=C(c2ccc(O)cc2)c2c(-c3ccc(O)cc3)ccc(CO)c2C#Cc2ccc(O)cc2)C=C1` [Selaginellin], the IC50 on UGT1A3 was 4.7 µM; against CYP2A6 it was more than 50 µM; at UGT1A4, 6.6 µM; on CYP2C19, 10 µM.
